Reference: PubChem BioAssay (NCI)
Where “and” joins values, the source holds several entries; their conditions need not be identical. Equal entries are not always repeated.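 Values below derive from 48-hour exposures of cells grown in 96-well plates, with endpoints linearly interpolated between the two concentrations bracketing the appropriate inhibition level. Abbreviation: GI50, concentration required for 50% inhibition of growth. The concentration for full growth arrest is given as TGI.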

Legend:
Assay in all cases: NCI tumour cell line growth inhibition, 48 h
786-0 renal = test system: 786-0 renal
DU-145 prostate = test system: DU-145 prostate
HCT-15 colon = test system: HCT-15 colon
NCI/ADR-RES ovarian = test system: NCI/ADR-RES ovarian
OVCAR-3 ovarian = test system: OVCAR-3 ovarian
SK-OV-3 ovarian = test system: SK-OV-3 ovarian
U251 CNS = test system: U251 CNS
HCT-116 colon = test system: HCT-116 colon
NCI-H460 lung = test system: NCI-H460 lung
SF-268 CNS = test system: SF-268 CNS

Row | Compound | GI50 (786-0 renal) | TGI (786-0 renal) | GI50 (DU-145 prostate) | TGI (DU-145 prostate) [µM] | GI50 (HCT-15 colon) | TGI (HCT-15 colon) [µM] | GI50 (NCI/ADR-RES ovarian) | TGI (NCI/ADR-RES ovarian) [µM] | GI50 (OVCAR-3 ovarian) | TGI (OVCAR-3 ovarian) | GI50 (SK-OV-3 ovarian) | TGI (SK-OV-3 ovarian) | GI50 (U251 CNS) | TGI (U251 CNS) | GI50 (HCT-116 colon) | TGI (HCT-116 colon) | GI50 (NCI-H460 lung) | TGI (NCI-H460 lung) [µM] | GI50 (SF-268 CNS) | TGI (SF-268 CNS) [µM]
1 | CCCCCCCCCCCCCCCC1=NCCN1 | 1840 nM | 3.32 µM | 1.9 µM | 3.57 | 1610 nM | 3.24 | 2.16 µM | 5.09 | 2.01 µM | 4.02 µM | 2.23 µM | 4.85 µM | 1870 nM | 3.52 µM |  |  |  |  |  | 
2 | C=C1C(=O)O[C@H]2[C@H]1CC/C(COC(=O)NCc1c[nH]c3ccccc13)=C\CC[C@@]1(C)O[C@@H]21 | 1780 nM | 3.93 µM | 2.35 µM | 10.7 | 1670 nM | 4.19 | 6.4 µM | 23.1 | 1.71 µM | 4.57 µM | 13.7 µM | 26.6 µM | 11100 nM | 23.1 µM | 1530 nM | 3.3 µM | 8.14 µM | 23.1 | 10.4 µM | 22.6
3 | CCN(CC)CCCC(C)Nc1ccnc2cc(Cl)ccc12 (centres undefined) | 67200 nM | > 100 µM and 23.9 µM | > 100 µM | > 100 | 57900 nM | > 100 |  | > 100 | 22.3 µM | 75.6 µM and > 100 µM | > 100 µM | > 100 µM | > 100000 nM | > 100 µM and 66.1 µM | 25600 nM | > 100 µM and 42 µM | 66.6 µM | > 100 |  | > 100
4 | Cc1ccc(Nc2nccc(N(C)c3ccc4c(C)n(C)nc4c3)n2)cc1S(N)(=O)=O | 4030 nM and 2800 nM and 5960 nM | > 100 µM | 5.21 µM and 5.4 µM and 11.5 µM | > 100 | 4040 nM and 2770 nM and 5980 nM | > 100 | 45.8 µM and 23.1 µM | > 100 | 7.93 µM and 6.42 µM and 15.2 µM | > 100 µM and > 10 µM and 77.9 µM | 2.93 µM and 4.9 µM and 4.24 µM | 29.6 µM and > 10 µM and > 100 µM | 3350 nM and 950 nM and 8120 nM | > 100 µM | 3490 nM and 1700 nM and 5440 nM | > 100 µM | 4.48 µM and 2.76 µM and 6.34 µM | > 100 | 5.26 µM and 3.17 µM and 9.96 µM | > 100
5 | CCCCCOCC(O)CO (centres undefined) |  | > 100 µM |  |  |  | > 100 |  |  |  | > 100 µM |  |  |  | > 100 µM |  | > 100 µM |  | > 100 |  | > 100
6 | COc1cc2c3cc1Oc1c(OC)c(OC)cc4c1C(=NCC4)Cc1ccc(cc1)Oc1cc(ccc1O)C[C@H]3N(C)CC2 |  | 22.8 µM |  | > 100 |  | 25.9 |  | 29.6 |  | 39.4 µM |  | > 100 µM |  | 45.2 µM |  | 26.8 µM |  | 39.9 |  | > 100
7 | CN(C)CCCN(CCC1CCCCC1)CCC1CCCCC1 | 2740 nM | 9.16 µM | 5.56 µM | 17.7 | 1460 nM | 3.59 | 0.683 µM | 7 | 2.11 µM | 5.63 µM | 7.68 µM | 21.5 µM | 1670 nM | 3.81 µM | 1570 nM | 3.64 µM | 1.79 µM | 3.45 | 5.5 µM | 18
8 | N#CC12CCC1C1CCCCC12N1CCSCC1 (centres undefined) |  | > 100 µM |  |  |  | > 100 |  |  |  | > 100 µM |  |  |  | > 100 µM |  | > 100 µM |  | > 100 |  | 
9 | CCC(=O)N1C(=O)OCC1C(C)C (centres undefined) |  | > 100 µM |  |  |  | > 100 |  |  |  | > 100 µM |  | > 100 µM |  | > 100 µM |  | > 100 µM |  | > 100 |  | > 100
10 | COc1ccc(/C(=N\NC(=O)NN)C(c2ccc(OC)cc2)C2(O)C(=O)Nc3c(Cl)cc(Cl)cc32)cc1 (centres undefined) |  | > 100 µM |  |  |  |  |  |  |  | > 100 µM |  |  |  | > 100 µM |  | > 100 µM |  | > 100 |  | > 100
11 | COc1cc(Oc2c(C)c(Cl)c(OC)c(Cl)c2OC)c2c(c1Cl)COC2=O |  | 68.4 µM |  | > 100 |  | > 100 |  | > 100 |  |  |  | > 100 µM |  | > 100 µM |  | > 100 µM |  | > 100 |  | > 100
12 | N#CC(C(=O)C(=O)Nc1ccccc1)c1ccccc1 (centres undefined) |  | > 100 µM |  |  |  | > 100 |  |  |  | > 100 µM |  | > 100 µM |  | > 100 µM |  | > 100 µM |  |  |  | > 100
13 | COc1ccc2c(c1)c(-c1nc(-c3c[nH]c4ncccc34)cs1)cn2CCCN1CCCCC1 | 1610 nM | 3.06 µM | 1.65 µM | 3.13 | 1570 nM | 2.97 | 1.72 µM | 3.44 | 1.63 µM | 3.1 µM | 1.73 µM | 3.27 µM | 1780 nM | 3.21 µM |  |  | 1.94 µM | 3.88 | 1.52 µM | 3.17
14 | COc1cc(/C=C(\NC(=O)c2ccccc2)c2nc3ccc4c(c3[nH]2)C(=O)c2ccccc2C4=O)cc(OC)c1OC |  | > 100 µM |  |  |  | > 100 |  |  |  | > 100 µM |  | 95.6 µM |  | > 100 µM |  | > 100 µM |  |  |  | > 100
15 | O=C(Nc1cccc2c1C(=O)c1c(NC(=O)c3ccccc3)ccc(Nc3cccc4c3C(=O)c3ccccc3C4=O)c1C2=O)c1ccccc1 |  | > 100 µM |  |  |  | > 100 |  |  |  | > 100 µM |  | > 100 µM |  | > 100 µM |  | > 100 µM |  | > 100 |  | > 100
16 | CC(C)C12Cc3c(ccc4ccccc34)OC1(C)Oc1ccc3ccccc3c1C2 (centres undefined) |  | > 100 µM |  |  |  |  |  |  |  | > 100 µM |  | > 100 µM |  | > 100 µM |  | > 100 µM |  | > 100 |  | > 100
17 | COc1ccc(/C=C2\CN(C(=O)C(Cl)Cl)C/C(=C\c3ccc(OC)cc3)C2=O)cc1 | 1880 nM | 3.86 µM |  |  | 337 nM | 1.52 | 2 µM | 15.1 |  |  | 4.2 µM | > 100 µM |  |  | 234 nM | 0.653 µM |  |  | 2.95 µM | > 100
18 | BrC(Br)=C1C(=C(Br)Br)C(Br)C1Br (centres undefined) |  | 0.882 µM |  | 0.502 |  | 1.73 |  |  |  | 2.15 µM |  | 12.7 µM |  | 2.69 µM |  | 1.1 µM |  | 1.35 |  | 1.51
19 | CCCc1n(Cc2ccc3ccccc3c2)cc[n+]1Cc1ccc2ccccc2c1 | 1520 nM | 2.91 µM | 1.49 µM | 7.25 | 3690 nM | 16.1 | 17.1 µM | 44.3 |  |  | 1.74 µM | 4.95 µM | 765 nM | 2.11 µM | 971 nM | 2.17 µM | 1.22 µM | 3.01 | 1.08 µM | 2.52
